Several values for one entry are separate records, joined by “and”; a condition that tells them apart may be missing. Equal values may be shown once.
Settings: Crystal, Transpiration method

O=[Te]=O [tellurium dioxide]
Settings	vapor or sublimation pressure
884 K	0.0001487 kPa
889 K	0.0001692 kPa
895 K	0.0001987 kPa
899 K	0.0002538 kPa
905 K	0.0003102 kPa
909 K	0.0003271 kPa
915 K	0.0004741 kPa
925 K	0.0006099 kPa and 0.0006023 kPa and 0.0005679 kPa
926 K	0.0005409 kPa
935 K	0.0009295 kPa
940 K	0.001155 kPa
941 K	0.001072 kPa
946 K	0.001255 kPa
951 K	0.001465 kPa
960 K	0.002168 kPa
971 K	0.003407 kPa
976 K	0.003717 kPa
982 K	0.004543 kPa
987 K	0.004956 kPa

Reference: the NIST ThermoML archive (doi:10.1016/j.tca.2007.11.004)
